Data: patent US7732611B2, “Amine salt of carbostyril derivative” (Otsuka Pharmaceutical Co., Ltd., priority 2004, dated 2010)

Legend:
[1] = Solubility test at 25° C. of the salt in a preparation prepared when used without isolating the salt (HPLC); format: physicochemical; conditions: water, Compound A plus equimolar amine, salt not isolated, shaken 7 days, 0.2 μm filter
Method: And then as to a sample to which arginine was added, the suspension was filtered through a 0.2 μm membrane filter. […] And then the mixture was filtrated through a 0.2 μm membrane filter. According to the same method as Example 8, the solubilities (%) of each salt was measured by HPLC.

[2] = Water-solubility test at 25° C. of the isolated salts (HPLC); format: physicochemical; conditions: shaken 3 hours (5 days for meglumine salt), filtered, concentration of Compound A by HPLC
Method: Preparation of the Test Solution
After shaking, the mixture was filtered through a 0.45 μm membrane filter (0.2 μm for meglumine salt). 1 mL of the filtrate was precisely pipetted and thereto was added 50% DMF so as to be totally 50 mL in precise. 2 mL of this solution was precisely pipetted and thereto was added 50% DMF so as to be totally 20 mL in precise to give a sample solution.
Preparation of the Standard Solution
Using each 10 μL of the sample solutions and the standard solutions, the liquid chromatographic analyses were carried out in the following conditions.

Solubility (%) [1]: >7.4%
Solubility (%) [2]: 2.9%
Structure (SMILES): CC(O)CNCC(C)O.O=C(NC(Cc1cc(=O)[nH]c2ccccc12)C(=O)O)c1ccc(Cl)cc1 (centres unmarked) [Compound A·diisopropanolamine salt, 2-(4-chlorobenzoylamino)-3-(2-quinolon-4-yl)propionic acid.diisopropanolamine salt]
